Laboratory results from ChEMBL document CHEMBL3885881, “DrugMatrix”.

Species on record: Rattus norvegicus
Experiment: DrugMatrix - Regimen: Daily Repeat
Assay type: toxicity, organism-based, Sprague-Dawley
Design: regimen Daily Repeat, gender Male, age 6-8 weeks
Details: in vivo, sc, […], route mini-PUMP - SUBCUTANEOUS, dose level High, vehicle 100 % SALINE; for ABSOLUTE LYMPHOCYTE / ABSOLUTE MONOCYTE / BASOPHIL / EOSINOPHIL / ERYTHROCYTE COUNT / HEMATOCRIT / HEMOGLOBIN / LEUKOCYTE COUNT / MEAN CORPUSCULAR HEMOGLOBIN / MEAN CORPUSCULAR HEMOGLOBIN CONCENTRATION / MEAN CORPUSCULAR VOLUME / MONOCYTE / NEUTROPHIL / PLATELET COUNT / ABSOLUTE BASOPHIL / ABSOLUTE EOSINOPHIL / ABSOLUTE SEGMENTED NEUTROPHIL / NUCLEATED RED BLOOD CELLS: tissue Blood
[1] = 0.5 mg/kg, tissue Plasma, time 14 day
[2] = 72 h, dose 0.72 mg/Kg, time 3 day
[3] = 72 h, tissue Plasma, dose 0.72 mg/Kg, time 3 day
[4] = 120 h, dose 0.72 mg/Kg, time 5 day
[5] = 120 h, tissue Plasma, dose 0.72 mg/Kg, time 5 day
[6] = tissue Plasma, dose 0.72 mg/Kg, time 14 day

Structure (SMILES): CC[C@H](C)[C@H](NC(=O)[C@H](Cc1ccc(O)cc1)NC(=O)[C@@H](NC(=O)[C@H](CCCNC(=N)N)NC(=O)[C@@H](N)CC(=O)O)C(C)C)C(=O)N[C@@H](Cc1cnc[nH]1)C(=O)N1CCC[C@H]1C(=O)N[C@@H](Cc1ccccc1)C(=O)O [ANGIOTENSIN II]
- ABSOLUTE LYMPHOCYTE (0.5 mg/kg, time 14 day): 9890 cells/µL
- ABSOLUTE MONOCYTE (0.5 mg/kg, time 14 day): 390 cells/µL
- BASOPHIL (0.5 mg/kg, time 14 day): 0.3%
- EOSINOPHIL (0.5 mg/kg, time 14 day): 0.46%
- ERYTHROCYTE COUNT (0.5 mg/kg, time 14 day): 7.14 x10E6/uL
- HEMATOCRIT (0.5 mg/kg, time 14 day): 45.2%
- HEMOGLOBIN (0.5 mg/kg, time 14 day): 14.82 G/DL
- LEUKOCYTE COUNT (0.5 mg/kg, time 14 day): 13.29 x10E3/uL
- MEAN CORPUSCULAR HEMOGLOBIN (0.5 mg/kg, time 14 day): 20.82 pg
- MEAN CORPUSCULAR HEMOGLOBIN CONCENTRATION (0.5 mg/kg, time 14 day): 32.78 G/DL
- MEAN CORPUSCULAR VOLUME (0.5 mg/kg, time 14 day): 63.38 fL
- MONOCYTE (0.5 mg/kg, time 14 day): 3.02%
- NEUTROPHIL (0.5 mg/kg, time 14 day): 20.78%
- PLATELET COUNT (0.5 mg/kg, time 14 day): 1204.2 x10E3/uL
- ALBUMIN [1]: 3.98 G/DL
- ALKALINE PHOSPHATASE [1]: 370.2 u/L
- ASPARTATE AMINOTRANSFERASE [1]: 94.8 u/L
- BLOOD UREA NITROGEN [1]: 19 mg/dL
- CARBON DIOXIDE [1]: 41 mmol/L
- CHOLESTEROL [1]: 66.8 mg/dL
- CREATINE PHOSPHOKINASE [1]: 324.4 u/L
- CREATININE [1]: 0.74 mg/dL
- GLUCOSE [1]: 138.2 mg/dL
- LACTATE DEHYDROGENASE [1]: 202.4 u/L
- PHOSPHORUS [1]: 9.74 mg/dL
- POTASSIUM [1]: 5.88 MEQ/L
- SODIUM [1]: 149.8 MEQ/L
- TOTAL BILIRUBIN [1]: 0.44 mg/dL
- URIC ACID [1]: 0.7 mg/dL
- ABSOLUTE BASOPHIL [2]: 0 CELLS/uL
- ABSOLUTE EOSINOPHIL [2]: 0 CELLS/uL
- ABSOLUTE LYMPHOCYTE [2]: 11891.33 CELLS/uL
- ABSOLUTE MONOCYTE [2]: 399.33 CELLS/uL
- ABSOLUTE SEGMENTED NEUTROPHIL [2]: 1676 CELLS/uL
- BASOPHIL [2]: 0%
- EOSINOPHIL [2]: 0%
- ERYTHROCYTE COUNT [2]: 6.49 x10E6/uL
- HEMATOCRIT [2]: 38.87%
- HEMOGLOBIN [2]: 14.23 G/DL
- LEUKOCYTE COUNT [2]: 13.97 x10E3/uL
- MEAN CORPUSCULAR HEMOGLOBIN [2]: 21.93 pg
- MEAN CORPUSCULAR HEMOGLOBIN CONCENTRATION [2]: 36.63 G/DL
- MEAN CORPUSCULAR VOLUME [2]: 59.9 fL
- MONOCYTE [2]: 2.67%
- NEUTROPHIL [2]: 12%
- NUCLEATED RED BLOOD CELLS [2]: 0 /100WBC
- PLATELET COUNT [2]: 1285 x10E3/uL
- ALBUMIN [3]: 4.4 G/DL
- ALKALINE PHOSPHATASE [3]: 340 u/L
- ASPARTATE AMINOTRANSFERASE [3]: 83.67 u/L
- BLOOD UREA NITROGEN [3]: 25.67 mg/dL
- CARBON DIOXIDE [3]: 28.67 mmol/L
- CHOLESTEROL [3]: 90.33 mg/dL
- CREATININE [3]: 0.22 mg/dL
- GLUCOSE [3]: 151.33 mg/dL
- LACTATE DEHYDROGENASE [3]: 469.67 u/L
- PHOSPHORUS [3]: 10.63 mg/dL
- POTASSIUM [3]: 5.96 MEQ/L
- SODIUM [3]: 143.73 MEQ/L
- TOTAL BILIRUBIN [3]: 0.2 mg/dL
- URIC ACID [3]: 2 mg/dL
- ABSOLUTE BASOPHIL [4]: 0 CELLS/uL
- ABSOLUTE EOSINOPHIL [4]: 202.67 CELLS/uL
- ABSOLUTE LYMPHOCYTE [4]: 15280.67 CELLS/uL
- ABSOLUTE MONOCYTE [4]: 168.67 CELLS/uL
- ABSOLUTE SEGMENTED NEUTROPHIL [4]: 1814.67 CELLS/uL
- BASOPHIL [4]: 0%
- EOSINOPHIL [4]: 1.33%
- ERYTHROCYTE COUNT [4]: 6.42 x10E6/uL
- HEMATOCRIT [4]: 38.03%
- HEMOGLOBIN [4]: 14.03 G/DL
- LEUKOCYTE COUNT [4]: 17.47 x10E3/uL
- MEAN CORPUSCULAR HEMOGLOBIN [4]: 21.87 pg
- MEAN CORPUSCULAR HEMOGLOBIN CONCENTRATION [4]: 36.9 G/DL
- MEAN CORPUSCULAR VOLUME [4]: 59.23 fL
- MONOCYTE [4]: 1%
- NEUTROPHIL [4]: 10.33%
- NUCLEATED RED BLOOD CELLS [4]: 0 /100WBC
- PLATELET COUNT [4]: 1412 x10E3/uL
- ALBUMIN [5]: 4.23 G/DL
- ALKALINE PHOSPHATASE [5]: 297.67 u/L
- ASPARTATE AMINOTRANSFERASE [5]: 85 u/L
- BLOOD UREA NITROGEN [5]: 26 mg/dL
- CARBON DIOXIDE [5]: 27.33 mmol/L
- CHOLESTEROL [5]: 71 mg/dL
- CREATININE [5]: 0.21 mg/dL
- GLUCOSE [5]: 137 mg/dL
- LACTATE DEHYDROGENASE [5]: 451.33 u/L
- PHOSPHORUS [5]: 11.73 mg/dL
- POTASSIUM [5]: 6.62 MEQ/L
- SODIUM [5]: 144.83 MEQ/L
- TOTAL BILIRUBIN [5]: 0.2 mg/dL
- URIC ACID [5]: 2.03 mg/dL
- ABSOLUTE BASOPHIL (dose 0.72 mg/Kg, time 14 day): 0 CELLS/uL
- ABSOLUTE EOSINOPHIL (dose 0.72 mg/Kg, time 14 day): 135.4 CELLS/uL
- ABSOLUTE LYMPHOCYTE (dose 0.72 mg/Kg, time 14 day): 12908 CELLS/uL
- ABSOLUTE MONOCYTE (dose 0.72 mg/Kg, time 14 day): 411.8 CELLS/uL
- ABSOLUTE SEGMENTED NEUTROPHIL (dose 0.72 mg/Kg, time 14 day): 3124.8 CELLS/uL
- BASOPHIL (dose 0.72 mg/Kg, time 14 day): 0%
- EOSINOPHIL (dose 0.72 mg/Kg, time 14 day): 0.8%
- ERYTHROCYTE COUNT (dose 0.72 mg/Kg, time 14 day): 6.73 x10E6/uL
- HEMATOCRIT (dose 0.72 mg/Kg, time 14 day): 38.96%
- HEMOGLOBIN (dose 0.72 mg/Kg, time 14 day): 14.36 G/DL
- LEUKOCYTE COUNT (dose 0.72 mg/Kg, time 14 day): 16.58 x10E3/uL
- MEAN CORPUSCULAR HEMOGLOBIN (dose 0.72 mg/Kg, time 14 day): 21.34 pg
- MEAN CORPUSCULAR HEMOGLOBIN CONCENTRATION (dose 0.72 mg/Kg, time 14 day): 36.86 G/DL
- MEAN CORPUSCULAR VOLUME (dose 0.72 mg/Kg, time 14 day): 57.88 fL
- MONOCYTE (dose 0.72 mg/Kg, time 14 day): 2.6%
- NEUTROPHIL (dose 0.72 mg/Kg, time 14 day): 17.8%
- NUCLEATED RED BLOOD CELLS (dose 0.72 mg/Kg, time 14 day): 0 /100WBC
- PLATELET COUNT (dose 0.72 mg/Kg, time 14 day): 976.2 x10E3/uL
- ALBUMIN [6]: 4.22 G/DL
- ALKALINE PHOSPHATASE [6]: 388 u/L
- ASPARTATE AMINOTRANSFERASE [6]: 100.6 u/L
- BLOOD UREA NITROGEN [6]: 31 mg/dL
- CARBON DIOXIDE [6]: 34.2 mmol/L
- CHOLESTEROL [6]: 70.6 mg/dL
- CREATININE [6]: 0.27 mg/dL
- GLUCOSE [6]: 174 mg/dL
- LACTATE DEHYDROGENASE [6]: 122.4 u/L
- PHOSPHORUS [6]: 11.92 mg/dL
- POTASSIUM [6]: 5.67 MEQ/L
- SODIUM [6]: 147.54 MEQ/L
- TOTAL BILIRUBIN [6]: 0.2 mg/dL
- URIC ACID [6]: 2.4 mg/dL
